Test results as given in US20240083900A1, “PYRAZOLO[1,5-A]PYRAZINE DERIVATIVES AS BTK INHIBITORS” (BIOGEN MA INC., priority 2020, published 2024).

Molecular target: BTK (Homo sapiens (Human), UniProt Q06187)
Test: In Vitro BTK Kinase Assay: Btk-PolyGAT-LS Assay
Format: biochemical
Conditions: BTK enzyme 0.25 nM, ATP 10 μM, polyGAT 100 nM, 30 minutes incubation, TRF readout; read-out: IC50
Method: The purpose of the BTK in vitro assay is to determine compound potency against BTK through the measurement of IC50. […] For a typical assay, a 24 μL aliquot of a ATP/peptide master mix (final concentration; ATP 10 μM, polyGAT 100 nM) in kinase buffer (10 mM Tris-HCl pH 7.5, 10 mM MgCl2, 200 μM Na3PO4, 5 mM DTT, 0.01% Triton X-100, and 0.2 mg/ml casein) is added to each well. […] The assay is incubated for 30 minutes before being stopped with 28 μL of a 50 mM EDTA solution. […] The plate is covered and incubated for 45 minutes at room temperature.

Chain of BTK (Q06187 whole entry): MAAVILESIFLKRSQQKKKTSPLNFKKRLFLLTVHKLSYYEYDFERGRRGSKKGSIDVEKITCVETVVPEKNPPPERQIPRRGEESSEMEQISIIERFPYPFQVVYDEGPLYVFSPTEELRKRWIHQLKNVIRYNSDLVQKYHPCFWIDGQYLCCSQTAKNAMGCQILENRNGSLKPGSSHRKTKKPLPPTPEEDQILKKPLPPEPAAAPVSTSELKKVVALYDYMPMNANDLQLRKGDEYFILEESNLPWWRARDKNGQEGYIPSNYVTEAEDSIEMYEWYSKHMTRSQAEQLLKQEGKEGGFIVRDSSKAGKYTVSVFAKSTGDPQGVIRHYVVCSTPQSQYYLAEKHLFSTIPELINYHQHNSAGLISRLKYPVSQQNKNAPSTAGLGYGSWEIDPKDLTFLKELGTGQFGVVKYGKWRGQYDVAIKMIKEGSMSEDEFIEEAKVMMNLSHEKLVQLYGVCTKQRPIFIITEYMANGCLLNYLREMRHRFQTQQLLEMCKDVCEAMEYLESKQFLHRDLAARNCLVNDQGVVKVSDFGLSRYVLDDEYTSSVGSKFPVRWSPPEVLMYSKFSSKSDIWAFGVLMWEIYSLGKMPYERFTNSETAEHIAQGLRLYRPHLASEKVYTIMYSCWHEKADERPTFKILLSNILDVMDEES

Row | Structure (SMILES) | IC50 [nM]
1 | C=CC(=O)N1CCC[C@@H](Oc2nc(-c3cc(OC)ncn3)cn3nccc23)CC1 [Example 74, (R)-1-(4-((6-(6-methoxypyrimidin-4-yl)pyrazolo[1,5-a]pyrazin-4-yl)oxy)azepan-1-yl)prop-2-en-1-one] | 10 to 1000
2 | C=CC(=O)N1CCC[C@@H](Oc2nc(-c3nc(C)co3)cn3nccc23)CC1 [Example 75, (R)-1-(4-((6-(4-methyloxazol-2-yl)pyrazolo[1,5-a]pyrazin-4-yl)oxy)azepan-1-yl)prop-2-en-1-one] | 10 to 1000
3 | C=CC(=O)N1CCC[C@@H](Oc2nc(-c3csc(C)n3)cn3nccc23)CC1 [Example 76, (R)-1-(4-((6-(2-methylthiazol-4-yl)pyrazolo[1,5-a]pyrazin-4-yl)oxy)azepan-1-yl)prop-2-en-1-one] | 1 to 10
4 | C=CC(=O)N1CCC[C@@H](Oc2nc(-c3cnc(C)s3)cn3nccc23)CC1 [Example 77, (R)-1-(4-((6-(2-methylthiazol-5-yl)pyrazolo[1,5-a]pyrazin-4-yl)oxy)azepan-1-yl)prop-2-en-1-one] | < 1
5 | C=CC(=O)N1CCC[C@@H](Oc2nc(-c3cc(C)ns3)cn3nccc23)CC1 [Example 78, (R)-1-(4-((6-(3-methylisothiazol-5-yl)pyrazolo[1,5-a]pyrazin-4-yl)oxy)azepan-1-yl)prop-2-en-1-one] | 1 to 10
6 | C=CC(=O)N(C)[C@H]1C[C@@](C)(Oc2nc(-c3cn[nH]c3)cn3nccc23)C1 [Example 80, N-((1s,3s)-3-((6-(1H-pyrazol-4-yl)pyrazolo[1,5-a]pyrazin-4-yl)oxy)-3-methylcyclobutyl)-N-methylacrylamide] | < 1
7 | C=CC(=O)NC1CC2CC1CC2Oc1cc(-c2cnn(C)c2)cn2nccc12 (centres unmarked) [Example 82, N-(5-((6-(1-methyl-1H-pyrazol-4-yl)pyrazolo[1,5-a]pyridin-4-yl)oxy)bicyclo[2.2.1]heptan-2-yl)acrylamide] | 1 to 10
8 | C=CC(=O)N1C[C@H](COc2cc(-c3cnn(C)c3)cn3nccc23)OC(C)(C)C1 [Example 83, (R)-1-(2,2-dimethyl-6-(((6-(1-methyl-1H-pyrazol-4-yl)pyrazolo[1,5-a]pyridin-4-yl)oxy)methyl)morpholino)prop-2-en-1-one] | 1 to 10
9 | C=CC(=O)NC1CN(c2cc(-c3cnn(C)c3)cn3nccc23)CC12CC2 (centres unmarked) [Example 87, N-(5-(6-(1-methyl-1H-pyrazol-4-yl)pyrazolo[1,5-a]pyridin-4-yl)-5-azaspiro[2.4]heptan-7-yl)acrylamide] | 10 to 1000
10 | C=CC(=O)N1CC2CC1CC2Nc1cc(-c2cnn(C)c2)cn2nccc12 (centres unmarked) [Example 88, 1-(5-((6-(1-methyl-1H-pyrazol-4-yl)pyrazolo[1,5-a]pyridin-4-yl)amino)-2-azabicyclo[2.2.1]heptan-2-yl)prop-2-en-1-one] | 1 to 10
11 | C=CC(=O)NC1CN(c2cc(-c3cnn(C)c3)cn3nccc23)CC(F)(F)C1 (centres unmarked) [Example 89, N-(5,5-difluoro-1-(6-(1-methyl-1H-pyrazol-4-yl)pyrazolo[1,5-a]pyridin-4-yl)piperidin-3-yl)acrylamide] | 10 to 1000
12 | C=CC(=O)N1CCCN(Cc2nc(-c3cnn(C)c3)cn3nccc23)CC1 [Example 90, 1-(4-((6-(1-methyl-1H-pyrazol-4-yl)pyrazolo[1,5-a]pyrazin-4-yl)methyl)-1,4-diazepan-1-yl)prop-2-en-1-one] | 10 to 1000
13 | C=CC(=O)N1CCCC(N(C)Cc2nc(-c3cnn(C)c3)cn3nccc23)C1 (centres unmarked) [Example 91, 1-(3-(methyl((6-(1-methyl-1H-pyrazol-4-yl)pyrazolo[1,5-a]pyrazin-4-yl)methyl)amino)piperidin-1-yl)prop-2-en-1-one] | 10 to 1000
14 | CN(C)C/C=C/C(=O)N[C@H]1CCC[C@@H](Oc2nc(-c3cnn(C)c3)cn3ncc(F)c23)C1 [Example 94, (E)-4-(dimethylamino)-N-((1S,3R)-3-((3-fluoro-6-(1-methyl-1H-pyrazol-4-yl)pyrazolo[1,5-a]pyrazin-4-yl)oxy)cyclohexyl)but-2-enamide] | 10 to 1000
15 | C=CC(=O)N(C1CC1)[C@H]1C[C@H](Oc2nc(-c3cnn(C)c3)cn3nccc23)C1 [Example 102, N-cyclopropyl-N-((trans)-3-((6-(1-methyl-1H-pyrazol-4-yl)pyrazolo[1,5-a]pyrazin-4-yl)oxy)cyclobutyl)acrylamide] | 1 to 10
16 | C/C=C/C(=O)Nc1cc(Oc2nc(-c3cnn(C)c3)cn3nccc23)ccc1C [Example 131, (E)-N-(2-methyl-5-((6-(1-methyl-1H-pyrazol-4-yl)pyrazolo[1,5-a]pyrazin-4-yl)oxy)phenyl)but-2-enamide] | 10 to 1000

Row | Structure (SMILES) | IC50 [nM]
17 | C=CC(=O)NCc1cccc(Oc2nc(-c3cnn(C)c3)cn3nccc23)c1 [Example 132, N-(3-((6-(1-methyl-1H-pyrazol-4-yl)pyrazolo[1,5-a]pyrazin-4-yl)oxy)benzyl)acrylamide] | 10 to 1000
18 | Cn1cc(-c2cn3nccc3c(Oc3cccc(NC(=O)C#CC4CC4)c3Cl)n2)cn1 [Example 133, N-(2-chloro-3-((6-(1-methyl-1H-pyrazol-4-yl)pyrazolo[1,5-a]pyrazin-4-yl)oxy)phenyl)-3-cyclopropylpropiolamide] | < 1
19 | Cc1c(NC(=O)C2=CCC2)cc(F)cc1Oc1nc(-c2cnn(C)c2)cn2nccc12 [Example 134, N-(5-fluoro-2-methyl-3-((6-(1-methyl-1H-pyrazol-4-yl)pyrazolo[1,5-a]pyrazin-4-yl)oxy)phenyl)cyclobut-1-ene-1-carboxamide] | 1 to 10
20 | Cc1c(NC(=O)/C=C/CN(C)C2CCC2)cccc1Oc1nc(-c2cnn(C)c2)cn2nccc12 [Example 135, (E)-4-(cyclobutyl(methyl)amino)-N-(2-methyl-3-((6-(1-methyl-1H-pyrazol-4-yl)pyrazolo[1,5-a]pyrazin-4-yl)oxy)phenyl)but-2-enamide] | 10 to 1000
21 | O=C(/C=C/C(F)(F)F)Nc1cccc(Oc2nc(-c3cnn(C4CCOC4)c3)cn3nccc23)c1F (centres unmarked) [Example 136, (E)-4,4,4-trifluoro-N-(2-fluoro-3-((6-(1-(tetrahydrofuran-3-yl)-1H-pyrazol-4-yl)pyrazolo[1,5-a]pyrazin-4-yl)oxy)phenyl)but-2-enamide] | 1 to 10
22 | C=CC(=O)NC(C)c1cccc(Oc2nc(-c3cnn(C)c3)cn3nccc23)c1C (centres unmarked) [Example 137, N-(1-(2-methyl-3-((6-(1-methyl-1H-pyrazol-4-yl)pyrazolo[1,5-a]pyrazin-4-yl)oxy)phenyl)ethyl)acrylamide] | 10 to 1000
23 | CC#CC(=O)Nc1cncc(Oc2nc(-c3cnn(C)c3)cn3nccc23)c1 [Example 138, N-(5-((6-(1-methyl-1H-pyrazol-4-yl)pyrazolo[1,5-a]pyrazin-4-yl)oxy)pyridin-3-yl)but-2-ynamide] | 1 to 10
24 | CN(C)C/C=C/C(=O)N(CC(F)F)[C@H]1CC[C@@H](Oc2nc(-c3cnn(C)c3)cn3nccc23)C1 [Example 147, (E)-N-(2,2-difluoroethyl)-4-(dimethylamino)-N-((1S,3R)-3-((6-(1-methyl-1H-pyrazol-4-yl)pyrazolo[1,5-a]pyrazin-4-yl)oxy)cyclopentyl)but-2-enamide] | 1 to 10
25 | C=CC(=O)N1C[C@@H]2C[C@H]1C[C@H]2Oc1nc(-c2cnn(C)c2)cn2nccc12 [Example 152, 1-((1S,4S,5R)-5-((6-(1-methyl-1H-pyrazol-4-yl)pyrazolo[1,5-a]pyrazin-4-yl)oxy)-2-azabicyclo[2.2.1]heptan-2-yl)prop-2-en-1-one] | 1 to 10
26 | C=CC(=O)N1C[C@H]2C[C@@H]1C[C@@H]2Oc1nc(-c2cnn(C)c2)cn2nccc12 [Example 153, 1-((1R,4R,5S)-5-((6-(1-methyl-1H-pyrazol-4-yl)pyrazolo[1,5-a]pyrazin-4-yl)oxy)-2-azabicyclo[2.2.1]heptan-2-yl)prop-2-en-1-one] | 10 to 1000
27 | C=CC(=O)N1CC2CCC(N(C)c3cc(-c4cnn(C)c4)cn4nccc34)C2C1 (centres unmarked) [Example 154, 1-(4-(methyl(6-(1-methyl-1H-pyrazol-4-yl)pyrazolo[1,5-a]pyridin-4-yl)amino)hexahydrocyclopenta[c]pyrrol-2(1H)-yl)prop-2-en-1-one] | 10 to 1000
28 | C=CC(=O)N(C)[C@H]1C[C@@H](Oc2nc(-c3cnn([C@@H]4CCOC4)c3)cn3nccc23)C1 [Example 155, N-methyl-N-((cis)-3-((6-(1-((R)-tetrahydrofuran-3-yl)-1H-pyrazol-4-yl)pyrazolo[1,5-a]pyrazin-4-yl)oxy)cyclobutyl)acrylamide] | < 1
29 | C=CC(=O)N(C)[C@H]1C[C@@H](Oc2nc(-c3cnn([C@H]4CCOC4)c3)cn3nccc23)C1 [Example 156, N-methyl-N-((cis)-3-((6-(1-((S)-tetrahydrofuran-3-yl)-1H-pyrazol-4-yl)pyrazolo[1,5-a]pyrazin-4-yl)oxy)cyclobutyl)acrylamide] | < 1
30 | CC#CC(=O)N[C@H]1C[C@@](C)(Oc2nc(-c3cnn(C(F)(F)F)c3)cn3ncc(C)c23)C1 [Example 157, Cis N-(3-methyl-3-((3-methyl-6-(1-(trifluoromethyl)-1H-pyrazol-4-yl)pyrazolo[1,5-a]pyrazin-4-yl)oxy)cyclobutyl)but-2-ynamide] | 1 to 10
31 | C=CC(=O)N1C[C@@H]2[C@@H](CNc3cc(-c4cnn(C)c4)cn4nccc34)[C@@H]2C1 [Example 165, 1-((1R,5S,6s)-6-(((6-(1-methyl-1H-pyrazol-4-yl)pyrazolo[1,5-a]pyridin-4-yl)amino)methyl)-3-azabicyclo[3.1.0]hexan-3-yl)prop-2-en-1-one] | 1 to 10
32 | CC#CC(=O)N[C@@H]1CCC[C@H](Oc2nc(-c3cnn(C)c3)cn3nccc23)C1 [Example 180, N-((1R,3S)-3-((6-(1-methyl-1H-pyrazol-4-yl)pyrazolo[1,5-a]pyrazin-4-yl)oxy)cyclohexyl)but-2-ynamide] | 10 to 1000
